Reference: ChEMBL document CHEMBL5678818, “Discovery of potent SOS1 inhibitors that block RAS activation via disruption of the RAS-SOS1 interaction” (Proc Natl Acad Sci U S A, 2019)

Experiments:
Homo sapiens = organism: Homo sapiens; test: Inhibition of N-terminal GST-tagged recombinant human SOS1 N879A mutant (564 to 1049 residues) expressed in Escherichia coli assessed as reduction in KRAS G12C mutant activation at 10 uM by HTRF analysis relative to control
[1] = target: Dual specificity protein kinase CLK4 (Homo sapiens) (UniProt Q9HAZ1); test: Inhibition of CLK4 (unknown origin) assessed as residual activity at 100 nM by KINOMEscan analysis relative to control
[2] = target: T1, Casein kinase I isoform alpha-like (Homo sapiens) (UniProt Q8N752); test: Inhibition of CSNK1A1L (unknown origin) assessed as residual activity at 100 nM by KINOMEscan analysis relative to control
T1 sequence (whole entry): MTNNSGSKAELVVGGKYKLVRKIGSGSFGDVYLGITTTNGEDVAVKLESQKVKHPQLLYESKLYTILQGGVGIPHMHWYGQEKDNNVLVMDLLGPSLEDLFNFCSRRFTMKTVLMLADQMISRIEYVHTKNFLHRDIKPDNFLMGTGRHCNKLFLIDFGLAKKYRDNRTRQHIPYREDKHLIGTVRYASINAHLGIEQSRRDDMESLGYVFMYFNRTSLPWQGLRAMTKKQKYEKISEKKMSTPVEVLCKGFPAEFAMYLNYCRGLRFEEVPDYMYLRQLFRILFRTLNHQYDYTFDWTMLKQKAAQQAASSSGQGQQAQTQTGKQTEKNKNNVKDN

[3] = target: RAF proto-oncogene serine/threonine-protein kinase (Homo sapiens) (UniProt P04049); test: Inhibition of RAF1 (unknown origin) assessed as residual activity at 100 nM by KINOMEscan analysis relative to control
[4] = target: Phosphatidylinositol 4-phosphate 3-kinase C2 domain-containing subunit beta (Homo sapiens) (UniProt O00750); test: Inhibition of PIK3C2B (unknown origin) assessed as residual activity at 100 nM by KINOMEscan analysis relative to control
[5] = target: T2, Mitogen-activated protein kinase kinase kinase 3 (Homo sapiens) (UniProt Q99759); test: Inhibition of MAP3K3 (unknown origin) assessed as residual activity at 100 nM by KINOMEscan analysis relative to control
T2 sequence (whole entry): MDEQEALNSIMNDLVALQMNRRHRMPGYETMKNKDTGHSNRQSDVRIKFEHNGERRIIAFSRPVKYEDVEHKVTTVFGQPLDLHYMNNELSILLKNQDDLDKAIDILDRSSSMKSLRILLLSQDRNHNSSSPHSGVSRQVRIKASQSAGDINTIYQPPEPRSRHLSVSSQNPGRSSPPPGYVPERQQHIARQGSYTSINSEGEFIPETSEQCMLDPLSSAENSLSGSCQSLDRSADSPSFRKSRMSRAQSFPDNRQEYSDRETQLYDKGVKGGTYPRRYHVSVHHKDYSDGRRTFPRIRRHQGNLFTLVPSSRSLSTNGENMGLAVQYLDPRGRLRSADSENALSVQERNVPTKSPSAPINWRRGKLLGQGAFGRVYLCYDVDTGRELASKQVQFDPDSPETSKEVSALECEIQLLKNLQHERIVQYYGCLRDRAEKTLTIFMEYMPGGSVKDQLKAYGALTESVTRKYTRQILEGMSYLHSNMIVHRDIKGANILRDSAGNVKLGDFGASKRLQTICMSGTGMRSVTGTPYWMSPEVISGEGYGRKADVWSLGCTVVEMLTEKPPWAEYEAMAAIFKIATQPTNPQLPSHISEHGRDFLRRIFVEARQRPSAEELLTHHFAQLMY

[6] = target: T3, Son of sevenless homolog 1 (Homo sapiens) (UniProt Q07889); test: Inhibition of N-terminal His10-tagged wild-type recombinant human SOS1 catalytic domain (564 to 1049 residues) expressed in Escherichia coli assessed as reduction in KRAS G12C mutant activation at 10 uM by HTRF analysis relative to control
T3 sequence (whole entry): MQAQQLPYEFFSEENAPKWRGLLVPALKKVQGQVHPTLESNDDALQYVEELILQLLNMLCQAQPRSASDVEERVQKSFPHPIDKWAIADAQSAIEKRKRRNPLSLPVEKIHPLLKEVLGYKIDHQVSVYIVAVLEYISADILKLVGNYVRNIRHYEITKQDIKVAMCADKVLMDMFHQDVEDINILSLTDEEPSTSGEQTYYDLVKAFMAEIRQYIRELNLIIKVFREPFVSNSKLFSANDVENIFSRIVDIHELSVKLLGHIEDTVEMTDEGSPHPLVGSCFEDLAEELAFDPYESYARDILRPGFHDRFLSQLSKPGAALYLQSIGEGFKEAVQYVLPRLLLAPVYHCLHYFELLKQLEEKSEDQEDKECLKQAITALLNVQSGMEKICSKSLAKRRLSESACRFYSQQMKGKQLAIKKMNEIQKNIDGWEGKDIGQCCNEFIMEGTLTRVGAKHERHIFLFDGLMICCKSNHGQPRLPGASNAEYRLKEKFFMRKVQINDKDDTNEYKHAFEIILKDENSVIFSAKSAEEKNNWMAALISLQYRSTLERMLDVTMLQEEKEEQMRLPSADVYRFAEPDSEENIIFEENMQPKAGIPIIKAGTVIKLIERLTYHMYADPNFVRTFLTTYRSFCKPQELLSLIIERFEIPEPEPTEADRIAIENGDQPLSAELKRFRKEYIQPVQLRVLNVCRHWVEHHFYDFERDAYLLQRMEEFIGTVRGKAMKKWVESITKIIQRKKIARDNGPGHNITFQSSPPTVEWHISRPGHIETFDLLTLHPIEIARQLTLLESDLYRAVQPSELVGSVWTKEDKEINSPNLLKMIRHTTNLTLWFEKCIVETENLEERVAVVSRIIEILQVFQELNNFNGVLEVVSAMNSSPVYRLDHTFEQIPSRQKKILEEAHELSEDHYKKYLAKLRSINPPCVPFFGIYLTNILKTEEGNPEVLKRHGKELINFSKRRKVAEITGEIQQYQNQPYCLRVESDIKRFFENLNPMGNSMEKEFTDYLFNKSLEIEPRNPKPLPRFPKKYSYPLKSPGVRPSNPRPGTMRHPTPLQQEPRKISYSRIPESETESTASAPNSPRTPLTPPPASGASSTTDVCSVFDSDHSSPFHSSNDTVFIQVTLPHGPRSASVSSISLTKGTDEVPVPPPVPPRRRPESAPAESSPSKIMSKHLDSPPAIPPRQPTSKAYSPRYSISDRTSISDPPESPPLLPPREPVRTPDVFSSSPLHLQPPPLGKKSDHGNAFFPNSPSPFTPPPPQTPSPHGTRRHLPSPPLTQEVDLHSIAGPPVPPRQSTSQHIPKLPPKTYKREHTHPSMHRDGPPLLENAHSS

[7] = test system: Tyrosine-protein kinase ABL1 (Homo sapiens), P00519 [F317I]; test: Inhibition of nonphosphorylated ABL1 F317I mutant (unknown origin) assessed as residual activity at 100 nM by KINOMEscan analysis relative to control
Chain of Tyrosine-protein kinase ABL1 (Homo sapiens), P00519 [F317I] (P00519 whole entry F317I): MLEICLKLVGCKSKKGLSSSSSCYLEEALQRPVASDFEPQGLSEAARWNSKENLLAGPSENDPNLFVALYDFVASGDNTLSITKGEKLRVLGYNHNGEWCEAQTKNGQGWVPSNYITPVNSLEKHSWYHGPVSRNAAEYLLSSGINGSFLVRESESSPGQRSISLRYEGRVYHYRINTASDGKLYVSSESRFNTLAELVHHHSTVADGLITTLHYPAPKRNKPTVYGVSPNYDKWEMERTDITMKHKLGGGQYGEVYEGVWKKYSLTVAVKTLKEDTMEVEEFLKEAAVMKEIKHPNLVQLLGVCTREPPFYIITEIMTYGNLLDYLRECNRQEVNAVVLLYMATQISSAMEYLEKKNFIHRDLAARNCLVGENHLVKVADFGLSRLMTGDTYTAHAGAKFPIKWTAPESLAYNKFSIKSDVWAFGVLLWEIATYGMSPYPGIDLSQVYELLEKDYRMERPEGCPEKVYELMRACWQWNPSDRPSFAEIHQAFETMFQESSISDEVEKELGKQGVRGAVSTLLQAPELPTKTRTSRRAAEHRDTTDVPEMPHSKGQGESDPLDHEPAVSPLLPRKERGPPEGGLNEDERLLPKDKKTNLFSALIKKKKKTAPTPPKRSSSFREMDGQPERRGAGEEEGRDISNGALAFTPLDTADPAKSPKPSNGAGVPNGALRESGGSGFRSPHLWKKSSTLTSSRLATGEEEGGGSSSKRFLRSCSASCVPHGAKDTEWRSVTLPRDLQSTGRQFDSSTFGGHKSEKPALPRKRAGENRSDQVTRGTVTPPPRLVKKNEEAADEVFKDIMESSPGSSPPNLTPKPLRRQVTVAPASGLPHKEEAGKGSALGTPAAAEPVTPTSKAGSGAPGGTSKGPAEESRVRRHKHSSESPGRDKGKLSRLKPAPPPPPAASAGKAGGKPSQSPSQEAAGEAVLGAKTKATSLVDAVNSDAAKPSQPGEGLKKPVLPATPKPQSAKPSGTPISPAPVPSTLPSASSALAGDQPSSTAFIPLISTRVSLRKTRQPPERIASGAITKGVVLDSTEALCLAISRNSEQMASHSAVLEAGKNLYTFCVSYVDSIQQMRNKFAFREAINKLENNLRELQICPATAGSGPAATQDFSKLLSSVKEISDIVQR

Chain of Phosphatidylinositol 4-phosphate 3-kinase C2 domain-containing subunit beta (Homo sapiens) (O00750 whole entry, the tested form may be a part): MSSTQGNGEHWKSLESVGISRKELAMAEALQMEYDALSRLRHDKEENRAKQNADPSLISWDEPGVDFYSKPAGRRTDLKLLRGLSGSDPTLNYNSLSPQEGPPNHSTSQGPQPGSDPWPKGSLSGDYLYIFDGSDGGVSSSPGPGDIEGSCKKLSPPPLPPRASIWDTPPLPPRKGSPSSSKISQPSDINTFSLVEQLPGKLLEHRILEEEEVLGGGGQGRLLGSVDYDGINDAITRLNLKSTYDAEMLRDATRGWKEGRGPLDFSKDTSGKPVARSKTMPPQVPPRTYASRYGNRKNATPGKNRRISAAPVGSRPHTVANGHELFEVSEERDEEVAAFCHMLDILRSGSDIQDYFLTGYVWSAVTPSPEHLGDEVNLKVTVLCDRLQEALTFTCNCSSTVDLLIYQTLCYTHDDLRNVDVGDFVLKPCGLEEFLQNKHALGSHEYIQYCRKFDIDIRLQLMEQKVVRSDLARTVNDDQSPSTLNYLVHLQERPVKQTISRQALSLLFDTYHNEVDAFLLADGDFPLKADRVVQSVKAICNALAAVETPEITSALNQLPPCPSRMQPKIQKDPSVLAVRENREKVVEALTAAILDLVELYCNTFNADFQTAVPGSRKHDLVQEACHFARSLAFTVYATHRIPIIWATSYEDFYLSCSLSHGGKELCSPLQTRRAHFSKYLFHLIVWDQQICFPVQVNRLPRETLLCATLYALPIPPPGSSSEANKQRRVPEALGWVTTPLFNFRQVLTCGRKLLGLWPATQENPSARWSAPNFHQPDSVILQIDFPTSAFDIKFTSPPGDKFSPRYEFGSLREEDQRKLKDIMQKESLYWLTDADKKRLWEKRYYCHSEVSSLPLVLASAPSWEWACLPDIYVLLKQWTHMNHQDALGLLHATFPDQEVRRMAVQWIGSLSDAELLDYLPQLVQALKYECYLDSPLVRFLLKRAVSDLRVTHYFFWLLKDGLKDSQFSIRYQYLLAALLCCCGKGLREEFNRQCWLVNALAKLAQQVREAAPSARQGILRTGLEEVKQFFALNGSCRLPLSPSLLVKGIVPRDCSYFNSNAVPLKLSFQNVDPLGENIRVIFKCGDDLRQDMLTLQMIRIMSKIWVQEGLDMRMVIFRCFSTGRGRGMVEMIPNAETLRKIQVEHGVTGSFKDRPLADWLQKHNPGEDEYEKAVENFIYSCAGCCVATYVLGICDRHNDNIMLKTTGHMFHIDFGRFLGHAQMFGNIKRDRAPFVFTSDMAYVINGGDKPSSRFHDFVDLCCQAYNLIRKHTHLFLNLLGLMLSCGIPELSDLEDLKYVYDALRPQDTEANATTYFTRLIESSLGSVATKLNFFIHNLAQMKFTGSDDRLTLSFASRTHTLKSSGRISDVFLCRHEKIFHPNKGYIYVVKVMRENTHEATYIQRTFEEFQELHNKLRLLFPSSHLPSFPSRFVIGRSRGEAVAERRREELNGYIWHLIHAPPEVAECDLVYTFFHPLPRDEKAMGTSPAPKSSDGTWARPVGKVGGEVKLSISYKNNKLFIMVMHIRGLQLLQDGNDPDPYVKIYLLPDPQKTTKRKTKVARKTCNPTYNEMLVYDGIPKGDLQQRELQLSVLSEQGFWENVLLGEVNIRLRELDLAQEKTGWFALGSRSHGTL
Chain of Dual specificity protein kinase CLK4 (Homo sapiens) (Q9HAZ1 whole entry, looked up, canonical isoform): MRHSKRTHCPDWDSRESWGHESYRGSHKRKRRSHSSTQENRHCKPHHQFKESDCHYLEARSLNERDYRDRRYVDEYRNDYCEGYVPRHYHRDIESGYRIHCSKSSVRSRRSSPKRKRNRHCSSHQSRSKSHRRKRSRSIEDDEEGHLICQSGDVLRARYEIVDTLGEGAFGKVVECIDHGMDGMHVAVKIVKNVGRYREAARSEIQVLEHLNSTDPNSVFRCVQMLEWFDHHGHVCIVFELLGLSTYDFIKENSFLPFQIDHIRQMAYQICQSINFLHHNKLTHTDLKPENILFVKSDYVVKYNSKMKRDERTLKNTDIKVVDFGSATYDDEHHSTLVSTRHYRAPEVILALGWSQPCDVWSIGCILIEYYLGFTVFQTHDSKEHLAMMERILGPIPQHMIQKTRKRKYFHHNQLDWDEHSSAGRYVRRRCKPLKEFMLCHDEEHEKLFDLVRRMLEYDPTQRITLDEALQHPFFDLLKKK
Chain of RAF proto-oncogene serine/threonine-protein kinase (Homo sapiens) (P04049 whole entry, the tested form may be a part): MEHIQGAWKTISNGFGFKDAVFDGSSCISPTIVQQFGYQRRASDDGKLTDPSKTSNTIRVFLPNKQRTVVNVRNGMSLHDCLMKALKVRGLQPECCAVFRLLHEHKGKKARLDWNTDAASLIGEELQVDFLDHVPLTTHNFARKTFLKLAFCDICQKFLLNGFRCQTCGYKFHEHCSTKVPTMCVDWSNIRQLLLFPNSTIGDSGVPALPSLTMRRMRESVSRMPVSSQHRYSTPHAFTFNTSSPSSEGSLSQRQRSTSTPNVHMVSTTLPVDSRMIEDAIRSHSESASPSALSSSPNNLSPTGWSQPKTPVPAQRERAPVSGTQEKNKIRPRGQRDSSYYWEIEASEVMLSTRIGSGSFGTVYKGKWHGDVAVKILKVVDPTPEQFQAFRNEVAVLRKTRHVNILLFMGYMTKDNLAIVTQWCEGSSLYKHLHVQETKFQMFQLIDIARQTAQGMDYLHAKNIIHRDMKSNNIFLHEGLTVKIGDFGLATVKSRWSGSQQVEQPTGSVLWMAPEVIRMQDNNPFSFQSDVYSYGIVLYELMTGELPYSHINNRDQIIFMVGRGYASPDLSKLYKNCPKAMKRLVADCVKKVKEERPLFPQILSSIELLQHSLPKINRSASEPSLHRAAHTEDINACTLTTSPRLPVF

`COc1cc2ncnc(N[C@H](C)c3cccc4ccccc34)c2cc1OC` gave an inhibition (Homo sapiens) of 37%, an Activity [1] of 87% and an Activity [2] of 100%. For the same compound, the Activity [3] was 85%, the Activity [4] was 81% and the Activity [5] was 90%. It also gave an inhibition [6] of 95% and an Activity [7] of 85%.
